Experiment [1] deals with T1, rabbit skeletal RyR1 (native RyR1 in HSR) (Oryctolagus cuniculus, UniProt P11716).
T1 construct: tested using native RyR1 in rabbit skeletal HSR; from tissue; host or cells: rabbit fast-twitch back and leg muscles (heavy SR vesicles)
The experiment in a line: Planar lipid bilayer single-channel recording, native RyR1 in HSR. As to conditions: for EC50 of Psubstate compared with wild type (in words): native RyR1 (Figure 2(b)), Figure 5(b), purified RyR1, also cited in sentence; for EC50: native RyR1 in SR, toxin cis, 6-100 nM, -30 mV, [Ca^2+]free 10 μM, pH 7.2, Hill fit, means ± SE of 3–9 experiments, read-out: EC50 for Psubstate. Format: biochemical. The protocol:
A heavy fraction of fragmented SR vesicles (HSR) containing junctional SR was prepared from rabbit fast-twitch back and leg muscles as described previously.
(§1) Single-channel recordings of rabbit skeletal RyR1 incorporated into planar lipid bilayers were carried out as described previously. Lipid bilayers, consisting of brain tissue phosphatidylethanolamine and phosphatidylserine (1 : 1) in decane (20 mg/mL) were formed across a hole of approximately 200 μm diameter. Thinning of the bilayer was monitored by bilayer capacitance. The basic composition of the cis/trans solution consisted of 300 mM cesium methanesulfonate, 10 mM Tris/Hepes (pH 7.2), 2 mM EGTA, and 1.998 mM CaCl2 ([Ca^2+]free = 10 μM). [Ca^2+]free was calculated using the “Chelator” program (Theo Schoenmaker). Cs^+ was selected as the charge carrier to ensure precise control of free [Ca^2+], to increase the channel conductance, and to avoid any contribution from potassium channels present in the SR membrane. Chloride channels were inhibited by using the impermeant anion methanesulfonate. Incorporation of ion channels was carried out as described by Miller and Racker and confirmed by recording the characteristically high single-channel conductance of RyRs. The trans side was maintained at ground and the cis side was clamped at −30 mV relative to the ground. After addition of the IpTxa to the cis chamber, the single channel data were collected at −30 mV for 2–5 min. […] Recordings were filtered with an 8-pole low-pass Bessel filter at 1 kHz and digitalized through a Digidata 1200 series interface (Axon Instruments). Data acquisition and analysis were done with the Axon Instruments software, pClamp v7.0.
(§2) Data were analyzed using the Hill equation described previously:
(§3) (1) Psubstate=(Psubstate, max )/[1+(EC50/[IpTxa])^nH] orPo=(Po, max )/[1+(EC50/[IpTxa])^nH], where (Po, max ) is the Po observed at saturating concentrations of IpTxa, EC50 is the IpTxa concentration for which 50% of Po, max is obtained and nH is the Hill coefficient. Also, Psubstate, max is the Psubstate observed at saturating concentrations of IpTxa, EC50 is the IpTxa concentration for which 50% of Psubstate, max is obtained, and nH is the Hill coefficient. The probability of full open state of the channel (Po) was defined as the ratio of the time spent in the open state to the total time exclusive of time spent in the substate. The probability to obtain substate (Psubstate) was calculated as the time spent in the substate divided by a given total recording time. The durations of the substate were obtained by manual positioning of the cursors and constructing all point histograms. Mean duration of substate was measured by total substate time divided by total substate frequencies.
(§4) Results are given as means ± SE. Significant differences were analyzed using Student's t-test. Differences were considered to be significant when P < 0.05. The fitting of the data to the graphs were carried out using the software, Origin v7.
To examine how IpTxa modifies RyR1 activity, RyR1 in HSR incorporated in planar lipid bilayers was tested in the presence or absence of synthetic wild-type IpTxa. The chamber solutions for both cis (cytosolic) and trans (luminal) sides included 300 mM cesium methanesulfonate and 10 mM Tris-Hepes (pH 7.2). 10 μM free Ca^2+ was added to the cis side to activate the incorporated RyR1. After an addition of IpTxa to the cis chamber, the single channel gating properties were recorded at a holding potential of −30 mV for over 2 min at each toxin concentration. […] To examine the effects of IpTxa on full open state, we calculated the probability to obtain the full open state (Po) as the time spent in the open state divided by the total time exclusive of the time spent in the substate. The time for recorded Po was in the range of 30 s–2 min. […] The steady-state Po was 0.18 ± 0.02 at 10 μM Ca^2+. […]

Another experiment has as its target T2, purified rabbit RyR1 (Oryctolagus cuniculus, UniProt P11716).
T2 construct: we added IpTxa to purified RyR1 incorporated into planar lipid bilayers; from tissue; host or cells: rabbit skeletal muscle (inferred; purified from HSR)
The experiment in a line: Planar lipid bilayer single-channel recording, purified RyR1. It is filed as biochemical. The note with it: purified RyR1, toxin cis, 6-100 nM, -30 mV, 10 μM Ca^2+, Hill fit, means ± SE of 4–10 experiments; read-out: EC50 for Psubstate. On the procedure: as §1, §2, §3, §4
To determine whether the activation of native RyR1 in SR by IpTxa was due to a direct activation of RyR1 or due to an indirect activation through other proteins associated to RyR1, we added IpTxa to purified RyR1 incorporated into planar lipid bilayers (Figure 3(a)). […] Purity of RyR1 at the final purification step was verified by Coomassie blue staining (Supplementary Figure 2).
Figure 3 Effects of IpTxa on purified rabbit RyR1 incorporated in planar lipid bilayers. (a) Single channel activity of purified RyR1 incorporated in planar lipid bilayers at 10 μM Ca^2+ with or without IpTxa (6–100 nM) was recorded. Single channel currents are shown as downward deflections from the closed level (indicated by c). The holding potential was −30 mV. (b) The plot of Po of purified RyR1 versus various concentrations of IpTxa is shown. (c) The plot of Psubstate of purified RyR1 versus various concentrations of IpTxa is shown. The results are shown as the means ± SE for 7 experiments. […]

Molecules are shown by their SMILES. Bridge positions count the residues as written; N and C are the ends. Peptide text beside a SMILES is read from it.

T1 sequence (P11716 whole entry): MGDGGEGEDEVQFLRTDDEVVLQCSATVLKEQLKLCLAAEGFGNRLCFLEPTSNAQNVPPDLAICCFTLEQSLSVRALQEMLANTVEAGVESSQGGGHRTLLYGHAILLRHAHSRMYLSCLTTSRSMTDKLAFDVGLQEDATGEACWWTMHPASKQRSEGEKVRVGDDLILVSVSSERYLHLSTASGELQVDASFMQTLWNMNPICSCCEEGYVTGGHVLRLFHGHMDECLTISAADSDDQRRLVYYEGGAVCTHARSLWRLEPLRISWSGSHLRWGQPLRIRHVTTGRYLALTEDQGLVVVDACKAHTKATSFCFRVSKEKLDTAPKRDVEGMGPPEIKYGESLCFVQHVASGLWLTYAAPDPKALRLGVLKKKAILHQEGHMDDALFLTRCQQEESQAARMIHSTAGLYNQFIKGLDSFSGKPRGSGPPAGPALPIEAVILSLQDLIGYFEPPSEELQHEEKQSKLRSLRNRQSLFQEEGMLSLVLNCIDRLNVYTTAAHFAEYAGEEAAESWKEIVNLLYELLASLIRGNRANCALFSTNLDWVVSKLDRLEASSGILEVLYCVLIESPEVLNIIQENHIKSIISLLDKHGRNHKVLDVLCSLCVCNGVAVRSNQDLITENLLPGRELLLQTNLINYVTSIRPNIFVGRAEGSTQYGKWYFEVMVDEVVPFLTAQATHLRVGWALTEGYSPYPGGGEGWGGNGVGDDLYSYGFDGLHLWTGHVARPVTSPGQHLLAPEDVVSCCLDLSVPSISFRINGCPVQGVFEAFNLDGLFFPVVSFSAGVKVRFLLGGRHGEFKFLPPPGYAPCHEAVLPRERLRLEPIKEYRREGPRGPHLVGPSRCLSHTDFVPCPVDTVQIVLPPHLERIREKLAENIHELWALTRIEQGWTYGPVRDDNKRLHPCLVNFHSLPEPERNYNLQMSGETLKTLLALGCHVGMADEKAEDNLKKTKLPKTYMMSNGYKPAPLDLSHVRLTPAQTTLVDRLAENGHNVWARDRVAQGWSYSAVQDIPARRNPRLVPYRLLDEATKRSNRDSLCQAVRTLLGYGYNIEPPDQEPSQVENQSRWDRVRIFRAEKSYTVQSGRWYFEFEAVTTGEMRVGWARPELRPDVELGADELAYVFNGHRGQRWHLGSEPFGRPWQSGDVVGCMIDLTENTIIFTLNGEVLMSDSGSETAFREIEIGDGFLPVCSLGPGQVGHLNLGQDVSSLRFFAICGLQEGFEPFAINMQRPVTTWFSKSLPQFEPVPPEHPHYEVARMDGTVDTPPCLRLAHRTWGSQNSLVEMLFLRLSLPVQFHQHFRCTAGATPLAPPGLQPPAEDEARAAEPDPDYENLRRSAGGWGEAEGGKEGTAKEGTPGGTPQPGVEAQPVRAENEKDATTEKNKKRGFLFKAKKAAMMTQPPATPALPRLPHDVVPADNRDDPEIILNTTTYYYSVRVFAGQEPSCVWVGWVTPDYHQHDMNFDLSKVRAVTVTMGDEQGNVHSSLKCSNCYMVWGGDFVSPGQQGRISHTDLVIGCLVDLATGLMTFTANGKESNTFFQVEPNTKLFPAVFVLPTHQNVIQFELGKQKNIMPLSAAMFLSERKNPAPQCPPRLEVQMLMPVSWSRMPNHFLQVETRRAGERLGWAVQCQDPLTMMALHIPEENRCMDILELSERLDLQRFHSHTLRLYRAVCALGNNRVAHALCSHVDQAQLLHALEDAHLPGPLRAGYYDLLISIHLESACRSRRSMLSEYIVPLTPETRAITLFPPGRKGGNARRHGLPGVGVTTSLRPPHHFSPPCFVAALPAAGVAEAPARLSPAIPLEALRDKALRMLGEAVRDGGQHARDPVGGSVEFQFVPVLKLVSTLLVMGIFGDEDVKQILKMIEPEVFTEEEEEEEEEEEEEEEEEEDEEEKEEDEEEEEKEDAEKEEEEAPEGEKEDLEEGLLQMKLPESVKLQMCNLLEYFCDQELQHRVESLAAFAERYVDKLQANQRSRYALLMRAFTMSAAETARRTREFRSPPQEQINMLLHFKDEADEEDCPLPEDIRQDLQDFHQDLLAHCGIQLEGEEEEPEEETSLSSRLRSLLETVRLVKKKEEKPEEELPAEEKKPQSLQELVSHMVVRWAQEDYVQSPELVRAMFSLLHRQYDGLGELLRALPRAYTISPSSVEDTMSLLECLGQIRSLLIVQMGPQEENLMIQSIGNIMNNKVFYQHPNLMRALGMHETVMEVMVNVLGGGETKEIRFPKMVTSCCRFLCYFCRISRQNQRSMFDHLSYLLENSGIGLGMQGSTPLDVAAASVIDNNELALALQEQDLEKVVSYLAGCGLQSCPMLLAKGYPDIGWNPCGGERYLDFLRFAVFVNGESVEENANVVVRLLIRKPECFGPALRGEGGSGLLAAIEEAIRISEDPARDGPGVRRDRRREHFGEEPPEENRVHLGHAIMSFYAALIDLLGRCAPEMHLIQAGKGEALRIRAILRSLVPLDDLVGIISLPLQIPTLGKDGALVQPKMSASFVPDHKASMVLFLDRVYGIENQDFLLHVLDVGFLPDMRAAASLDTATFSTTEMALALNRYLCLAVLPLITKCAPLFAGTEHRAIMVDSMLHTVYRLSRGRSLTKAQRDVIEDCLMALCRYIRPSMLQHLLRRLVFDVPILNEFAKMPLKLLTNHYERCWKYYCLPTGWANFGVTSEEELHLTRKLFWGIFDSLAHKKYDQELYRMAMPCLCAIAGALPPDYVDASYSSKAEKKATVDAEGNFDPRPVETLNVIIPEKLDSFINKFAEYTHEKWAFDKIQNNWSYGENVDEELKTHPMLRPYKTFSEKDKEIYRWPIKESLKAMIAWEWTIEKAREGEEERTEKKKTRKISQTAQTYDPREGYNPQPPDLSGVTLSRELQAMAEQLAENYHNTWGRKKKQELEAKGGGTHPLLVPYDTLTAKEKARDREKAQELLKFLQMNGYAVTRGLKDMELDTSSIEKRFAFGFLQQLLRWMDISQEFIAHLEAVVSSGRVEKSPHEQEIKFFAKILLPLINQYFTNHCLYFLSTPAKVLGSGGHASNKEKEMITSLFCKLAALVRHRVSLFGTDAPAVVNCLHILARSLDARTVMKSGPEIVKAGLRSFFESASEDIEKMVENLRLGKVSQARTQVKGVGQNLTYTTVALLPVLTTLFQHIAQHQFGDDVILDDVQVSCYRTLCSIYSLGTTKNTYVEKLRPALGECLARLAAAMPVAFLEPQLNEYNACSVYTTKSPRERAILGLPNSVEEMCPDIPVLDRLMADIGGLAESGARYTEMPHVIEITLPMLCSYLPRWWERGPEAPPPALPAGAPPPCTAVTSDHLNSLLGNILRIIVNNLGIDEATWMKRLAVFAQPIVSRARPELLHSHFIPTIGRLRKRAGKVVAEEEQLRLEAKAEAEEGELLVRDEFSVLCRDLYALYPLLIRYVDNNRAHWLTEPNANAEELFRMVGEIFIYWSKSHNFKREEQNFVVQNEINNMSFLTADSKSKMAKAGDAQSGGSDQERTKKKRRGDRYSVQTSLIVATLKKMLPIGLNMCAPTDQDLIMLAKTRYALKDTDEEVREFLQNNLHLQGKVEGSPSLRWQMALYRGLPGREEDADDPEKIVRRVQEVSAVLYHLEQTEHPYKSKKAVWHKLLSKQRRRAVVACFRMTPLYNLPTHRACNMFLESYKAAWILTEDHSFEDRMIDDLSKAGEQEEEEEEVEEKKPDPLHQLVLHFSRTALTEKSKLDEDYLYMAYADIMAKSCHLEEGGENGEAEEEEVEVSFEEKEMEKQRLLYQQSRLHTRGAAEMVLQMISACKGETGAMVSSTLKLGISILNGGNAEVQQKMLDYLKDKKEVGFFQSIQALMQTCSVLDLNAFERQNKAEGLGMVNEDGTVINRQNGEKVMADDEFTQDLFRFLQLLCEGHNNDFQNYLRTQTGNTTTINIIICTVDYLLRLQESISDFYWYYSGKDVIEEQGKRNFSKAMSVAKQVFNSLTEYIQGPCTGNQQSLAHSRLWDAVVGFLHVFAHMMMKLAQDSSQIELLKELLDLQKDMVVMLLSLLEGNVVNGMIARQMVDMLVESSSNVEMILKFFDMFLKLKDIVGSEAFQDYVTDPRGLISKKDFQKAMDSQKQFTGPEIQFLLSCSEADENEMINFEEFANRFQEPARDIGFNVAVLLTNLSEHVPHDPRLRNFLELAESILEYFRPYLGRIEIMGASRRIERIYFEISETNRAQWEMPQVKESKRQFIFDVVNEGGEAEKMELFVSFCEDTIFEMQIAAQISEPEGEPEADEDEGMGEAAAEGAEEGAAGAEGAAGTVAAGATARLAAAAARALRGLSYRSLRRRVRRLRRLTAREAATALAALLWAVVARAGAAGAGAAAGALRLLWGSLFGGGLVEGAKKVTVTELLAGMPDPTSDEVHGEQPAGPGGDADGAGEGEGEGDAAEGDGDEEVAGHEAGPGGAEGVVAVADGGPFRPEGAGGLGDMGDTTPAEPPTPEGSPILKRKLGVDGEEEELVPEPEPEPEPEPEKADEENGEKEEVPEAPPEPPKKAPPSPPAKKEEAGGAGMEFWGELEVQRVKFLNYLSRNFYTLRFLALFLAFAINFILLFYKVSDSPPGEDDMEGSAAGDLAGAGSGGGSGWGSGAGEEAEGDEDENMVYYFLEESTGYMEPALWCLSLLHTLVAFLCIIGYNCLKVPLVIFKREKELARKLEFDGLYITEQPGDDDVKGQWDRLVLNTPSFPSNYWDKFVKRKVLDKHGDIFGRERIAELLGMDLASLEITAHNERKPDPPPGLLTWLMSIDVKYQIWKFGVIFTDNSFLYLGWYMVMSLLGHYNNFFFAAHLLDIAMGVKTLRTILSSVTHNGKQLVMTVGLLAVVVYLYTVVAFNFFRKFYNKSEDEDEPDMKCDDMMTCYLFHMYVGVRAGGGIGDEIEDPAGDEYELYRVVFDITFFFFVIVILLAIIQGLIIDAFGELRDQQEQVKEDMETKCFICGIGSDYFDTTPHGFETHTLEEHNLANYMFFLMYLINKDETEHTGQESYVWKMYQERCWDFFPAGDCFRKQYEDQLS
T2 sequence (P11716 whole entry): as above

On to `CC(C)C[C@@H]1NC(=O)[C@H](Cc2c[nH]cn2)NC(=O)[C@@H]2CCCN2C(=O)[C@H](CC(C)C)NC(=O)[C@@H](NC(=O)[C@H](CC(=O)O)NC(=O)CN)CSSC[C@@H]2NC(=O)[C@@H]3CSSC[C@@H](C(=O)N[C@@H](CCCNC(=N)N)C(=O)O)NC(=O)[C@H](CCCNC(=N)N)NC(=O)[C@H](CCCCN)NC(=O)[C@H](CCC(=O)O)NC(=O)[C@H](C)NC(=O)[C@H](CC(N)=O)NC(=O)[C@H]([C@@H](C)O)NC(=O)CNC(=O)[C@H](CCCNC(=N)N)NC(=O)[C@H](CCCNC(=N)N)NC(=O)[C@H](CCCCN)NC(=O)[C@H](CSSC[C@H](NC(=O)[C@H](CCCNC(=N)N)NC(=O)[C@H](C)NC1=O)C(=O)N[C@@H](CCCCN)C(=O)N[C@@H](C)C(=O)N[C@@H](CC(=O)O)C(=O)N[C@@H](CC(N)=O)C(=O)N[C@@H](CC(=O)O)C(=O)N3)NC(=O)[C@H](CCCCN)NC(=O)[C@H](CCCCN)NC(=O)CNC2=O` [K8A] (H-GDCLPHLARCKADNDCCGKKCKRRGTNAEKRCR-OH; disulfide 3-17, 10-21, 16-32), for which, in experiment [1], the “EC50 of Psubstate compared with wild type (in words)” value is recorded as “dramatically decreased EC50 of Psubstate” and the EC50 (commonly the midpoint of the concentration-response curve) came out at 5.7 ± 2.86 nM. Moreover, at purified rabbit RyR1, the EC50 amounted to 5.29 ± 4.84 nM.

Consider `CC(C)C[C@@H]1NC(=O)[C@H](Cc2c[nH]cn2)NC(=O)[C@@H]2CCCN2C(=O)[C@H](CC(C)C)NC(=O)[C@@H](NC(=O)[C@H](CC(=O)O)NC(=O)CN)CSSC[C@@H]2NC(=O)[C@@H]3CSSC[C@@H](C(=O)N[C@@H](CCCNC(=N)N)C(=O)O)NC(=O)[C@H](CCCNC(=N)N)NC(=O)[C@H](CCCCN)NC(=O)[C@H](CCC(=O)O)NC(=O)[C@H](C)NC(=O)[C@H](CC(N)=O)NC(=O)[C@H]([C@@H](C)O)NC(=O)CNC(=O)[C@H](CCCNC(=N)N)NC(=O)[C@H](CCCNC(=N)N)NC(=O)[C@H](C)NC(=O)[C@H](CSSC[C@H](NC(=O)[C@H](CCCNC(=N)N)NC(=O)[C@H](CCCCN)NC1=O)C(=O)N[C@@H](CCCCN)C(=O)N[C@@H](C)C(=O)N[C@@H](CC(=O)O)C(=O)N[C@@H](CC(N)=O)C(=O)N[C@@H](CC(=O)O)C(=O)N3)NC(=O)[C@H](CCCCN)NC(=O)[C@H](CCCCN)NC(=O)CNC2=O` [K22A] (H-GDCLPHLKRCKADNDCCGKKCARRGTNAEKRCR-OH; disulfide 3-17, 10-21, 16-32), for which the EC50 in experiment [1] stood at 18.5 ± 2.88 nM. Take `CC(C)C[C@@H]1NC(=O)[C@H](Cc2c[nH]cn2)NC(=O)[C@@H]2CCCN2C(=O)[C@H](CC(C)C)NC(=O)[C@@H](NC(=O)[C@H](CC(=O)O)NC(=O)CN)CSSC[C@@H]2NC(=O)[C@@H]3CSSC[C@@H](C(=O)N[C@@H](CCCNC(=N)N)C(=O)O)NC(=O)[C@H](CCCNC(=N)N)NC(=O)[C@H](CCCCN)NC(=O)[C@H](CCC(=O)O)NC(=O)[C@H](C)NC(=O)[C@H](CC(N)=O)NC(=O)[C@H]([C@@H](C)O)NC(=O)CNC(=O)[C@H](CCCNC(=N)N)NC(=O)[C@H](CCCNC(=N)N)NC(=O)[C@H](CCCCN)NC(=O)[C@H](CSSC[C@H](NC(=O)[C@H](C)NC(=O)[C@H](CCCCN)NC1=O)C(=O)N[C@@H](CCCCN)C(=O)N[C@@H](C)C(=O)N[C@@H](CC(=O)O)C(=O)N[C@@H](CC(N)=O)C(=O)N[C@@H](CC(=O)O)C(=O)N3)NC(=O)[C@H](CCCCN)NC(=O)[C@H](CCCCN)NC(=O)CNC2=O` [R9A] (H-GDCLPHLKACKADNDCCGKKCKRRGTNAEKRCR-OH; disulfide 3-17, 10-21, 16-32): the EC50 in experiment [1] worked out at 19.9 ± 3.16 nM. The same measure, in the same setting: next, `CC(C)C[C@@H]1NC(=O)[C@H](Cc2c[nH]cn2)NC(=O)[C@@H]2CCCN2C(=O)[C@H](CC(C)C)NC(=O)[C@@H](NC(=O)[C@H](CC(=O)O)NC(=O)CN)CSSC[C@@H]2NC(=O)[C@@H]3CSSC[C@@H](C(=O)N[C@@H](CCCNC(=N)N)C(=O)O)NC(=O)[C@H](CCCNC(=N)N)NC(=O)[C@H](CCCCN)NC(=O)[C@H](CCC(=O)O)NC(=O)[C@H](C)NC(=O)[C@H](CC(N)=O)NC(=O)[C@H]([C@@H](C)O)NC(=O)CNC(=O)[C@H](CCCNC(=N)N)NC(=O)[C@H](C)NC(=O)[C@H](CCCCN)NC(=O)[C@H](CSSC[C@H](NC(=O)[C@H](CCCNC(=N)N)NC(=O)[C@H](CCCCN)NC1=O)C(=O)N[C@@H](CCCCN)C(=O)N[C@@H](C)C(=O)N[C@@H](CC(=O)O)C(=O)N[C@@H](CC(N)=O)C(=O)N[C@@H](CC(=O)O)C(=O)N3)NC(=O)[C@H](CCCCN)NC(=O)[C@H](CCCCN)NC(=O)CNC2=O` [R23A] (H-GDCLPHLKRCKADNDCCGKKCKARGTNAEKRCR-OH; disulfide 3-17, 10-21, 16-32): 19.5 ± 9.36 nM. On the same count and under the same terms, in the case of `CC(C)C[C@@H]1NC(=O)[C@H](Cc2c[nH]cn2)NC(=O)[C@@H]2CCCN2C(=O)[C@H](CC(C)C)NC(=O)[C@@H](NC(=O)[C@H](CC(=O)O)NC(=O)CN)CSSC[C@@H]2NC(=O)[C@@H]3CSSC[C@@H](C(=O)N[C@@H](CCCNC(=N)N)C(=O)O)NC(=O)[C@H](CCCNC(=N)N)NC(=O)[C@H](CCCCN)NC(=O)[C@H](CCC(=O)O)NC(=O)[C@H](C)NC(=O)[C@H](CC(N)=O)NC(=O)[C@H]([C@@H](C)O)NC(=O)CNC(=O)[C@H](C)NC(=O)[C@H](CCCNC(=N)N)NC(=O)[C@H](CCCCN)NC(=O)[C@H](CSSC[C@H](NC(=O)[C@H](CCCNC(=N)N)NC(=O)[C@H](CCCCN)NC1=O)C(=O)N[C@@H](CCCCN)C(=O)N[C@@H](C)C(=O)N[C@@H](CC(=O)O)C(=O)N[C@@H](CC(N)=O)C(=O)N[C@@H](CC(=O)O)C(=O)N3)NC(=O)[C@H](CCCCN)NC(=O)[C@H](CCCCN)NC(=O)CNC2=O` [R24A] (H-GDCLPHLKRCKADNDCCGKKCKRAGTNAEKRCR-OH; disulfide 3-17, 10-21, 16-32) it was 26 ± 7.01 nM.

As to `CC(C)C[C@@H]1NC(=O)[C@H](Cc2c[nH]cn2)NC(=O)[C@@H]2CCCN2C(=O)[C@H](CC(C)C)NC(=O)[C@@H](NC(=O)[C@H](CC(=O)O)NC(=O)CN)CSSC[C@@H]2NC(=O)[C@@H]3CSSC[C@@H](C(=O)N[C@@H](CCCNC(=N)N)C(=O)O)NC(=O)[C@H](CCCNC(=N)N)NC(=O)[C@H](CCCCN)NC(=O)[C@H](CCC(=O)O)NC(=O)[C@H](C)NC(=O)[C@H](CC(N)=O)NC(=O)[C@H](C)NC(=O)CNC(=O)[C@H](CCCNC(=N)N)NC(=O)[C@H](CCCNC(=N)N)NC(=O)[C@H](CCCCN)NC(=O)[C@H](CSSC[C@H](NC(=O)[C@H](CCCNC(=N)N)NC(=O)[C@H](CCCCN)NC1=O)C(=O)N[C@@H](CCCCN)C(=O)N[C@@H](C)C(=O)N[C@@H](CC(=O)O)C(=O)N[C@@H](CC(N)=O)C(=O)N[C@@H](CC(=O)O)C(=O)N3)NC(=O)[C@H](CCCCN)NC(=O)[C@H](CCCCN)NC(=O)CNC2=O` [T26A] (H-GDCLPHLKRCKADNDCCGKKCKRRGANAEKRCR-OH; disulfide 3-17, 10-21, 16-32), in experiment [1], the “EC50 of Psubstate compared with wild type (in words)” value was “dramatically decreased EC50 of Psubstate” and the concentration for a half-maximal effect (EC50) came out at 9.98 ± 1.92 nM.

The values above are taken from article PMC3192407, “Both Basic and Acidic Amino Acid Residues of IpTxa Are Involved in Triggering Substate of RyR1” (Journal of Biomedicine and Biotechnology, 2011).
